Values quoted from earlier work in US20240315993A1, “ANTIPARASITIC COMPOUNDS” (Intervet Inc., priority 2021, published 2024).

Assays:
[1] = test system: Beet Armyworm (Spodoptera exigua); details: 128-well diet tray, average of eight wells, cited from earlier work; for Test A: Bioassay on BAW, percent mortality rating: Beet Armyworm second instar larvae, 50 μg/cm^2, five to seven days; for Test A: percent mortality of Beet Armyworm (BAW) larvae, rating: 50 μg/cm^2 on artificial diet, second instar larvae, 5-7 days
[2] = test system: Cabbage Looper (Trichoplusia ni); details: 128-well diet tray, average of eight wells, cited from earlier work; for Test B: Bioassay on CL, percent mortality rating: Cabbage Looper second instar larvae, 50 μg/cm^2, five to seven days; for Test B: percent mortality of Cabbage Looper (CL) larvae, rating: 50 μg/cm^2 on artificial diet, second instar larvae, 5-7 days
[3] = test system: Yellow Fever Mosquito (Aedes aegypti); details: Aedes aegypti larvae about 1 day old, 96-well plate, scored after 3 days; cited from earlier work

| Compound | Test A: Bioassay on BAW, percent mortality rating [1] | Test B: Bioassay on CL, percent mortality rating [2] | Test C: Bioassay on Yellow Fever Mosquito, mortality rating [3] | Test A: percent mortality of Beet Armyworm (BAW) larvae, rating [1] | Test B: percent mortality of Cabbage Looper (CL) larvae, rating [2] |
| --- | --- | --- | --- | --- | --- |
| O=C(Nc1ccc(-n2ccnc2)cc1)c1cc(NC(=O)[C@H]2[C@H](c3cc(Cl)cc(Cl)c3)C2(Cl)Cl)ccc1Cl [c1] | A (50-100) | A (50-100) | A (80-100) | – | – |
| O=C(Nc1ccc(-n2cncn2)cc1)c1cc(NC(=O)[C@H]2[C@H](c3cc(Cl)cc(Cl)c3)C2(Cl)Cl)ccc1Cl [c2] | A (50-100) | A (50-100) | A (80-100) | – | – |
| Cc1cc(C(F)(C(F)(F)F)C(F)(F)F)cc(C)c1NC(=O)c1cc(NC(=O)[C@H]2[C@H](c3cc(Cl)cc(Cl)c3)C2(Cl)Cl)ccc1Cl [c3] | A (50-100) | A (50-100) | D (No activity noticed in this bioassay) | – | – |
| O=C(Nc1ccc(NC(=O)C2CC2)cc1)c1cc(NC(=O)[C@H]2[C@H](c3cc(Cl)cc(Cl)c3)C2(Cl)Cl)ccc1Cl [c4] | A (50-100) | A (50-100) | A (80-100) | – | – |
| O=C(CC1CC1)Nc1ccc(NC(=O)c2cc(NC(=O)[C@H]3[C@H](c4cc(Cl)cc(Cl)c4)C3(Cl)Cl)ccc2Cl)cc1 [c5] | A (50-100) | A (50-100) | A (80-100) | – | – |
| COCC1(C(=O)Nc2ccc(NC(=O)c3cc(NC(=O)[C@H]4[C@H](c5cc(Cl)cc(Cl)c5)C4(Cl)Cl)ccc3Cl)cc2)CC1 [c6] | A (50-100) | A (50-100) | A (80-100) | – | – |
| O=C(Nc1ccc(NC(=O)C2CC2(F)F)cc1)c1cc(NC(=O)[C@H]2[C@H](c3cc(Cl)cc(Cl)c3)C2(Cl)Cl)ccc1Cl (stereo partly shown) [c7] | A (50-100) | A (50-100) | A (80-100) | – | – |
| CC(C)(C)CC(=O)Nc1ccc(NC(=O)c2cc(NC(=O)[C@H]3[C@H](c4cc(Cl)cc(Cl)c4)C3(Cl)Cl)ccc2Cl)cc1 [c8] | A (50-100) | A (50-100) | D (No activity noticed in this bioassay) | – | – |
| O=C(Nc1ccc(-n2cnnc2)cc1)c1cc(NC(=O)[C@H]2[C@H](c3cc(Cl)cc(Cl)c3)C2(Cl)Cl)ccc1Cl [c9] | A (50-100) | A (50-100) | A (80-100) | – | – |
| CC(=O)Nc1ccc(NC(=O)c2cc(NC(=O)[C@H]3[C@H](c4cc(Cl)cc(Cl)c4)C3(Cl)Cl)ccc2Cl)c(C)c1 [c10] | A (50-100) | A (50-100) | A (80-100) | – | – |
| O=C(Nc1ccc2ncsc2c1)c1cc(NC(=O)C2C(c3cc(Cl)cc(Cl)c3)C2(Cl)Cl)ccc1Cl (stereo not shown) [c11] | A (50-100) | A (50-100) | A (80-100) | – | – |
| O=C(Nc1ccc2[nH]ccc2c1)c1cc(NC(=O)C2C(c3cc(Cl)cc(Cl)c3)C2(Cl)Cl)ccc1Cl (stereo not shown) [c12] | A (50-100) | A (50-100) | A (80-100) | – | – |
| O=C(Nc1ccc2cccnc2c1)c1cc(NC(=O)C2C(c3cc(Cl)cc(Cl)c3)C2(Cl)Cl)ccc1Cl (stereo not shown) [c13] | A (50-100) | A (50-100) | B (More than 0 - Less than 80) | – | – |
| O=C(Nc1cnc2cc[nH]c2c1)c1cc(NC(=O)C2C(c3cc(Cl)cc(Cl)c3)C2(Cl)Cl)ccc1Cl (stereo not shown) [c14] | A (50-100) | A (50-100) | B (More than 0 - Less than 80) | – | – |
| O=C(Nc1ccc2nc(Cl)[nH]c2c1)c1cc(NC(=O)C2C(c3cc(Cl)cc(Cl)c3)C2(Cl)Cl)ccc1Cl (stereo not shown) [c15] | A (50-100) | A (50-100) | B (More than 0 - Less than 80) | – | – |
| COC(=O)Nc1ccc(NC(=O)c2cc(NC(=O)[C@H]3[C@H](c4cc(Cl)cc(Cl)c4)C3(Cl)Cl)ccc2Cl)cc1 [c16] | A (50-100) | A (50-100) | B (More than 0 - Less than 80) | – | – |
| O=C(Nc1cc(C(F)(F)F)[nH]n1)c1cc(NC(=O)[C@H]2[C@H](c3cc(Cl)cc(Cl)c3)C2(Cl)Cl)ccc1Cl [c17] | A (50-100) | A (50-100) | D (No activity noticed in this bioassay) | – | – |
| O=C(Nc1ccc(-n2cccn2)cc1)c1cc(NC(=O)C2C(c3cc(Cl)cc(Cl)c3)C2(Cl)Cl)ccc1Cl (stereo not shown) [c18] | A (50-100) | A (50-100) | A (80-100) | – | – |
| O=C(Nc1nc2ccccc2s1)c1cc(NC(=O)C2C(c3cc(Cl)cc(Cl)c3)C2(Cl)Cl)ccc1Cl (stereo not shown) [c19] | A (50-100) | A (50-100) | B (More than 0 - Less than 80) | – | – |
| COc1c(Cl)cc(C2C(C(=O)Nc3ccc(Cl)c(C(=O)Nc4ccc(NC(C)=O)cc4)c3)C2(Cl)Cl)cc1Cl (stereo not shown) [c20] | A (50-100) | A (50-100) | D (No activity noticed in this bioassay) | – | – |
| CNc1ccc(NC(=O)c2cc(NC(=O)C3C(c4cc(Cl)c(OC)c(Cl)c4)C3(Cl)Cl)ccc2Cl)cc1 (stereo not shown) [c21] | A (50-100) | A (50-100) | D (No activity noticed in this bioassay) | – | – |
| O=C(Nc1nnn[nH]1)c1cc(NC(=O)[C@H]2[C@H](c3cc(Cl)cc(Cl)c3)C2(Cl)Cl)ccc1Cl [c22] | A (50-100) | A (50-100) | B (More than 0 - Less than 80) | – | – |
| O=C(Nc1ccc(-c2ncco2)cc1)c1cc(NC(=O)C2C(c3cc(Cl)cc(Cl)c3)C2(Cl)Cl)ccc1Cl (stereo not shown) [c23] | A (50-100) | A (50-100) | D (No activity noticed in this bioassay) | – | – |
| CC(=O)OCCNc1ccc(NC(=O)c2cc(NC(=O)C3C(c4ccc(F)c(C(F)(F)F)c4)C3(Cl)Cl)ccc2Cl)c(C)c1 (stereo not shown) [c119] | – | – | – | A (50-100) | A (50-100) |
| Cc1cc(NCCO)ccc1NC(=O)c1cc(NC(=O)C2C(c3ccc(F)c(C(F)(F)F)c3)C2(Cl)Cl)ccc1Cl (stereo not shown) [c120] | – | – | – | A (50-100) | A (50-100) |
